“Also recorded” adds a separate entry of the source.
What was measured:
[1] = test system: Cushing's syndrome patients; test: Cushing's syndrome patient study: safety and adverse events; format: in vivo, human
Description: (§1) All patients gave informed consent before participating in any study-related procedures.
The safety protocol also included assessments by physical examination findings, vital signs, ECG results, pregnancy tests, clinical laboratory test results (hematology and chemistry panels), adverse events (AEs), and concomitant medications.

[2] = test system: Cushing's syndrome patients; test: Cushing's syndrome patient study: liver function tests (ALT, AST); format: in vivo, human; settings: All Subjects, mITT
Description: All patients gave informed consent before participating in any study-related procedures. […] The study protocol called for patient visits to the study site at screening, on Day 1 (baseline), Weeks 2, 4, 6, 8, 10, and 12, and after a 4-week follow-up period for Group 1. For Group 2, the protocol called for patient visits to the study site at screening, on Day 1 (baseline), Weeks 2, 4, 6, 8, 10, 12, 14, and 16, and after a 4-week follow-up period. Patient dosing will be done at home, except on days of study visits. […] The safety protocol also included assessments by physical examination findings, vital signs, ECG results, pregnancy tests, clinical laboratory test results (hematology and chemistry panels), adverse events (AEs), and concomitant medications. […] It ignores noncompliance, protocol deviations, withdrawal, and anything that happens after randomization. In contrast, per-protocol (PP) analysis refers to inclusion in the analysis of only those patients who strictly adhered to the protocol. The PP analysis provides an estimate of the true efficacy of an intervention, i.e., among those who completed the treatment as planned.

[3] = test system: Cushing's syndrome patients; test: Cushing's syndrome patient study: depression (BDI-II), Cushing QOL, cognitive tests; format: in vivo, human; settings: All Subjects
Description: All patients gave informed consent before participating in any study-related procedures. […] The study protocol called for patient visits to the study site at screening, on Day 1 (baseline), Weeks 2, 4, 6, 8, 10, and 12, and after a 4-week follow-up period for Group 1. For Group 2, the protocol called for patient visits to the study site at screening, on Day 1 (baseline), Weeks 2, 4, 6, 8, 10, 12, 14, and 16, and after a 4-week follow-up period. Patient dosing will be done at home, except on days of study visits. […] It ignores noncompliance, protocol deviations, withdrawal, and anything that happens after randomization. In contrast, per-protocol (PP) analysis refers to inclusion in the analysis of only those patients who strictly adhered to the protocol. The PP analysis provides an estimate of the true efficacy of an intervention, i.e., among those who completed the treatment as planned.

[4] = test system: Cushing's syndrome patients; test: Cushing's syndrome patient study: hypertension response (24-hour ambulatory blood pressure); format: in vivo, human
Description: as §1
Response criteria for hyperglycemia were changes from baseline in glucose tolerance as measured by: ≥0.5% decrease in HbA1c, normalization or ≥50 mg/dL decrease in 2-hr OGTT glucose, or decrease in total daily insulin (≥25%) or sulfonylurea dose (≥50%). Response criteria for hypertension (HTN) was a ≥5 mm Hg decrease in mean systolic and/or diastolic blood pressure (SBP/DBP).
Response was based on ≥0.5% reduction of HbA1c associated with reduction or discontinuation of diabetes medications or clinically significant reduction (≥50 mg/dL decrease) or normalisation of the 2-hour glucose measurement from an oral glucose tolerance test (OGTT).

progesterone receptor = target: T1, progesterone receptor (Homo sapiens, UniProt P06401); test: Progesterone receptor affinity / binding
T1 sequence (P06401 1-933): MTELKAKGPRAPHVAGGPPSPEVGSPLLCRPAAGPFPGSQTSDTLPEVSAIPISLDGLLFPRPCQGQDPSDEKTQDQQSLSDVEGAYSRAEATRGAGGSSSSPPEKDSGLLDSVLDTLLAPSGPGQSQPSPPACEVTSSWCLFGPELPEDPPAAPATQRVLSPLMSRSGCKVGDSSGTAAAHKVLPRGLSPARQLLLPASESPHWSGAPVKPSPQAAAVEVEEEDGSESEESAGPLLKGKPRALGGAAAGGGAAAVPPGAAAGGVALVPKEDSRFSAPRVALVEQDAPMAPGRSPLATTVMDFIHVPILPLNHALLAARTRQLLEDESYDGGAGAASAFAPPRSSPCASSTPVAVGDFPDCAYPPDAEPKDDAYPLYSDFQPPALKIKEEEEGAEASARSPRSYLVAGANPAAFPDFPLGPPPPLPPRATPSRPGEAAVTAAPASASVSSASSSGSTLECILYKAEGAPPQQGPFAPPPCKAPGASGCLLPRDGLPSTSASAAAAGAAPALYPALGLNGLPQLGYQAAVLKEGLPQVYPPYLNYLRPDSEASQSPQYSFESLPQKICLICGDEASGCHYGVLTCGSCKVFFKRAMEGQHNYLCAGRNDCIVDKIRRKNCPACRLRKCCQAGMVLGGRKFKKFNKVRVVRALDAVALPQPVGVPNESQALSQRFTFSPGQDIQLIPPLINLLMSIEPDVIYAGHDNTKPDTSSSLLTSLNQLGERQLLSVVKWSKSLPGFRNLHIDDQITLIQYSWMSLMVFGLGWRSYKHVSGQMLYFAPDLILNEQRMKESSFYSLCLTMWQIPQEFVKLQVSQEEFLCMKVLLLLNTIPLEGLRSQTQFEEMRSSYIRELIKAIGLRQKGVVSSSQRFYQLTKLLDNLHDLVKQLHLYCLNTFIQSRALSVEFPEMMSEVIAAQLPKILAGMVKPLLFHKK

[5] = Group 1 (100-200 mg/day, 12 weeks)
[6] = Group 2 (250-400 mg/day, 16 weeks)
[7] = mITT, Group 1 (100-200 mg/day, 12 weeks)
[8] = mITT, Group 2 (250-400 mg/day, 16 weeks)
[9] = mPP, Group 1 (100-200 mg/day, 12 weeks)
[10] = mPP, Group 2 (250-400 mg/day, 16 weeks)

Cn1cc(S(=O)(=O)N2CCC3=Cc4c(cnn4-c4ccc(F)cc4)C[C@]3(C(=O)c3cc(C(F)(F)F)ccn3)C2)cn1 [relacorilant, (R)-(1-(4-fluorophenyl)-6-((1-methyl-1H-pyrazol-4-yl)sulfonyl)-4,4a,5,6,7,8-hexahydro-1H-pyrazolo[3,4-g]isoquinolin-4a-yl) (4-(trifluoromethyl)pyridin-2-yl)methanone]
adverse effects of progesterone receptor antagonism ([1]; Cushing's syndrome patients): no adverse effects of progesterone receptor antagonism
drug induced hypokalemia ([1]; Cushing's syndrome patients): none of the patients suffered hypokalemia; also recorded: without any episodes of drug induced hypokalemia; also recorded: no patients developed drug induced hypokalemia; also recorded: no reported instances
drug induced vaginal bleeding ([1]; Cushing's syndrome patients): No drug-induced hypokalemia or vaginal bleeding; also recorded: no cases of drug induced vaginal bleeding; also recorded: no reported instances
drug-related serious adverse events ([1]; Cushing's syndrome patients): no drug-related serious adverse events
most common treatment-emergent adverse events (TEAEs) ([1]; Cushing's syndrome patients): back pain, edema, headache, and nausea
tolerability ([1]; Cushing's syndrome patients, up to 400 mg/day): generally well tolerated
serious TEAEs ([1]; all from the HD group): Five serious TEAEs were reported in 4 patients
endometrial hypertrophy developed on previous mifepristone ([1]; one patient previously treated with mifepristone, during treatment with relacorilant): completely resolved
safety profile compared with mifepristone ([1]; patients with endogenous Cushing syndrome): significantly better
ALT (SGPT) mean change from Baseline to Last Observed [2, 5]: −7.88 U/L
AST (SGOT) mean change from Baseline to Last Observed [2, 5]: −2.71 U/L
ALT (SGPT) mean change from Baseline to Last Observed [2, 6]: −13.35 U/L
AST (SGOT) mean change from Baseline to Last Observed [2, 6]: −7.31 U/L
ALT (SGPT) mean change from Baseline to Last Observed ([2]; Overall): −10.62 U/L
AST (SGOT) mean change from Baseline to Last Observed ([2]; Overall): −4.94 U/L
BDI-II Total Score mean change from Baseline to Last Observed [3, 7]: −3.06
Cushing QOL Score mean change from Baseline to Last Observed [3, 7]: 6.25
Part A - Total Time to Complete T mean change from Baseline to Last Observed [3, 7]: −3.65
Part B - Total Time to Complete T mean change from Baseline to Last Observed [3, 7]: −15.94
BDI-II Total Score mean change from Baseline to Last Observed [3, 8]: −3.94
Cushing QOL Score mean change from Baseline to Last Observed [3, 8]: 8.07
Part A - Total Time to Complete T mean change from Baseline to Last Observed [3, 8]: −4.67
Part B - Total Time to Complete T mean change from Baseline to Last Observed [3, 8]: −34.6
BDI-II Total Score mean change from Baseline to Last Observed ([3]; mITT, Overall): −3.48
Cushing QOL Score mean change from Baseline to Last Observed ([3]; mITT, Overall): 7.13
Part A - Total Time to Complete T mean change from Baseline to Last Observed ([3]; mITT, Overall): −4.13
Part B - Total Time to Complete T mean change from Baseline to Last Observed ([3]; mITT, Overall): −24.69
BDI-II Total Score mean change from Baseline to Last Observed [3, 9]: −4.47
Cushing QOL Score mean change from Baseline to Last Observed [3, 9]: 6.25
Part A - Total Time to Complete T mean change from Baseline to Last Observed [3, 9]: −3.65
Part B - Total Time to Complete T mean change from Baseline to Last Observed [3, 9]: −15.94
BDI-II Total Score mean change from Baseline to Last Observed [3, 10]: −3.87
Cushing QOL Score mean change from Baseline to Last Observed [3, 10]: 7.64
Part A - Total Time to Complete T mean change from Baseline to Last Observed [3, 10]: −4.67
Part B - Total Time to Complete T mean change from Baseline to Last Observed [3, 10]: −34.6
BDI-II Total Score mean change from Baseline to Last Observed ([3]; mPP, Overall): −4.19
Cushing QOL Score mean change from Baseline to Last Observed ([3]; mPP, Overall): 6.9
Part A - Total Time to Complete T mean change from Baseline to Last Observed ([3]; mPP, Overall): −4.13
Part B - Total Time to Complete T mean change from Baseline to Last Observed ([3]; mPP, Overall): −24.69
hypertension response rate (≥5 mmHg reduction) ([4]; HD group (doses up to 400 mg daily), week 16): 63.6%
hypertension response rate (≥5 mmHg reduction) ([4]; LD group (doses up to 200 mg daily), week 12): 41.7%
nocturnal and daytime blood pressures ([4]; hypertension responders): clinically significant improvement
binding to the progesterone receptor (progesterone receptor): lack of binding to the progesterone receptor
progesterone receptor affinity (progesterone receptor; evidence from Cushing's syndrome patient study): no evidence of relacorilant having any progesterone receptor affinity

Reference: patent US12097192B2 (Corcept Therapeutics Incorporated, priority 2019, dated 2024)
